These results are taken from publication PMC9551036, “A selective and orally bioavailable VHL-recruiting PROTAC achieves SMARCA2 degradation in vivo” (Nature Communications, 2022).

The target in series [1] is T1, SMARCA2^BD (Homo sapiens, UniProt P51531).
T1 construct: P51531-2, residues 1373-1493 with additional N-terminal SM residues; GST (TEV site) (N, cleaved yes); made in house; host or cells: Escherichia coli BL21(DE3)
Briefly: SPR binding to immobilised SMARCA2 bromodomain. To be noted: benzoxazinone lead series, Fig. 1b; read-out: SMARCA2^BD SPR KD. The protocol: SMARCA4^BD was provided by the Structural Genomics Consortium (SGC), Toronto[32] and SMARCA2^BD and PRM1^BD5 were synthesised by GeneArt then subcloned into pDEST15 vectors (Invitrogen). The VCB complex was expressed and purified as described previously, with the modification that 0.3 mM IPTG was used for induction of expression. […] Both were stored in 20 mM 4-(2-hydroxyethyl)−1-piperazineethanesulfonic acid (HEPES), 150 mM sodium chloride and 1 mM tris(2-carboxyethyl)phosphine (TCEP) pH 7.5. SMARCA2^BD, SMARCA4^BD and PBRM1^BD5 were expressed in Escherichia coli BL21(DE3) as N-terminal GST fusion proteins with a TEV protease cleavage site. Expression and purification of these proteins has been described previously[32],[33]. Starter cultures were grown overnight at 37 °C in 10 mL of Luria-Bertani (LB) medium with ampicillin (100 μg/mL). The starter cultures were diluted (1:100) in Terrific Broth (TB) medium with ampicillin (100 μg/mL) and grown in a shaking incubator at 37 °C to an optical density (OD600) ~1 before the temperature was lowered for induction (to 23 °C for SMARCA2^BD or 18 °C for SMARCA4^BD and PRRM1^BD5). […] Cells were harvested by centrifugation and stored at −80 °C prior to purification. […] The Lysis buffers were as follows: for SMARCA2^BD: 50 mM HEPES, 500 mM sodium chloride, 5% glycerol, 5 mM dithiothreitol (DTT); for SMARCA4^BD: 25 mM HEPES, 0.3 M sodium chloride, 5% glycerol, 10 mM DTT, pH 7.5; for PBRM1^BD5: 25 mM HEPES, 300 mM sodium chloride, 5% glycerol, 10 mM DTT, pH 7.8; in each case supplemented with complete protease inhibitors (Roche). Affinity purification was performed using Glutathione Sepharose 4B (GE Healthcare) in batch mode or on-column. […] For SMARCA2^BD, prior to TEV protease cleavage the eluted GST-tagged BD was first dialysed into desalting buffer (20 mM HEPES, 250 mM sodium chloride, pH 7.0 + 0.5% glycerol). Where TEV cleavage was performed in solution, a second affinity (GST-trap) column purification step was carried out to remove the GST-tag and uncleaved GST-tagged protein. Proteins were further purified by SEC (HiLoad Superdex-75, 16/600) (GE Healthcare) and stored in Storage buffer (for SMARCA2^BD: 20 mM HEPES, 150 mM sodium chloride, pH 7.5; for SMARCA4^BD: 10 mM HEPES, 0.5 M NaCl, 5% glycerol, pH 7.5; for PBRM1^BD5: 20 mM HEPES, 300 mM NaCl, 5 mM DTT, pH 7.8). For AlphaScreen assays, eluted GST-tagged BDs were purified directly by SEC in the respective storage buffers without TEV cleavage. All chromatography purification steps were performed either at room temperature or 4 °C using an ÄKTA FPLC purification system (GE Healthcare) or a plastic Econo-Pac column (Bio-Rad).
SPR data were acquired on Biacore 8K or T200 instruments (Cytiva). Target proteins were immobilised at 25 °C on CM5 chips by amine coupling (EDC/NHS, Cytiva) in HBS-P+ running buffer (pH 7.4), containing 2 mM TCEP. […] The reference surface was subsequently deactivated using 1 M ethanolamine. […] Biotinylated VCB was prepared as previously described[27]: in brief, the complex was mixed 1:1 with EZ-Link NHS–PEG4–biotin (Thermo Scientific) and incubated at room temperature for 1 h. Unreacted NHS-biotin was removed using a PD-10 desalting column (Cytiva) into 20 mM HEPES, pH 7.5, 150 mM sodium chloride and 1 mM DTT. The reference surface was generated by deactivating the EDC/NHS-treated surface with 1 M ethanolamine. All interaction experiments were done at 6 °C in running buffer (20 mM TRIS, pH 8.3, 150 mM potassium chloride, 2 mM magnesium chloride, 2 mM TCEP, 0.005% TWEEN 20, 1% dimethyl sulfoxide). For ternary complex measurements, a sensor chip surface with VCB immobilised was used (preparation as described above). Experiments were run in dual-inject mode with 10 µM SMARCA present during the injection and dissociation phase. Sensorgrams from reference surfaces and blank injections were subtracted from the raw data prior to data analysis using Biacore Insight software.
For orientation: SPR reads the build-up and loss of mass on a sensor chip optically.

Series [2] can be described thus: Microsomal stability. Format: in vitro ADME. To be noted: for Mic. Stab. Human / Mic. Stab. Human QH: human liver microsomes; for Mic. Stab. Mouse / Mic. Stab. Mouse QH: mouse liver microsomes; for Mic. Stab. Rat / Mic. Stab. Rat QH: rat liver microsomes. The protocol:
[…] Reactions were terminated by addition of acetonitrile and precipitates separated by centrifugation. Compound concentrations in supernatants were measured by HPLC-MS/MS and clearance was calculated from compound half-lives using the well-stirred liver model.
On the technique in general: Microsomes from liver hold many membrane-bound enzymes, among them those of drug oxidation.

The nature of series [3]: Bidirectional permeability measurement in Caco-2 cells. Format: in vitro ADME. To be noted: human. The protocol:
Bidirectional permeability of test compounds across a Caco-2 cell monolayer was measured as described[43] with a modification of preincubation time[44]: Briefly, Caco-2 cells were seeded onto Transwell inserts (#3379, Corning, Wiesbaden, Germany) at a density of 160000 cells/cm^2 and cultured in DMEM (high glucose) containing 10% fetal bovine serum for 14–21 days. Cells were incubated with culture media containing 1 µM test compound for 24 h. […] Samples were taken at different time points for up to 2 h. Test compound in the samples was quantified with LC-MS/MS. To elucidate the role of drug transporter P-gp in the transcellular transport, permeability measurement was performed in the absence and presence of the selective P-gp inhibitor zosuquidar (5 µM final concentration). Apparent permeability coefficients (Papp,AB, Papp,BA) were calculated as follows:1 Papp,AB=Q_AB/C0×s×t 2 Papp,BA=Q_BA/C0×s×t where Q is the amount of compound recovered in the receiver compartment after the incubation time t, C0 the initial compound concentration given to the donor compartment, and s the surface area of the Transwell inserts. Efflux ratio is calculated as the quotient of Papp,BA (mean of duplicate) to Papp,AB (mean of duplicate). […] In addition, Transepithelial electrical resistance (TEER) values were measured for each plate before the permeability assay. All three parameters (efflux of the reference substrates, Papp values of the low permeable compound, and TEER values) were used to ensure the quality of the assays.
In general terms: Caco-2 cells form a polarised layer with tight junctions and transporters.

Series [4] in a line: Solubility testing. To be noted: for solubility at 24 h: buffer, kinetic from dmso stock. Format: physicochemical. The protocol:
Dilution into a 1:1 mixture of acetonitrile and water was used as reference. After 24 h, the incubations were filtrated, and the filtrate was analyzed by LC-UV.

The test system of series [5] is VCB: PROTAC: SMARCA2^BD ternary complex. Briefly: TR-FRET ternary complex affinity and cooperativity, SMARCA2. Format: binding, human. The following applies: ratio TR-FRET EC50 / TR-FRET EC50 +VCB measured in the same run, SMARCA2BD.
Series [6] has as its target T2, VCB: PROTAC: SMARCA2^BD ternary complex (Homo sapiens, UniProt P51531).
T2 construct: P51531-2, residues 1373-1493 with additional N-terminal SM residues; GST (TEV site) (N); His6 (TEV site) (N, cleaved yes); made in house; host or cells: SMARCA2^BD: Escherichia coli BL21(DE3)
Described as above. Format: binding.

In series [7] the target is VCB: PROTAC: SMARCA2^BD ternary complex (Homo sapiens, UniProt P40337+P51531). Described as above. Also noted: P51531-2, residues 1373-1493 with additional N-terminal SM residues; GST (TEV site) (N); His6 (TEV site) (N, cleaved yes); made in house; host or cells: SMARCA2^BD: Escherichia coli BL21(DE3). Format: binding.
Chain of VCB: PROTAC: SMARCA2^BD ternary complex (Homo sapiens, UniProt P40337+P51531) (P51531 with tags, fused parts or gaps isoform P51531-2): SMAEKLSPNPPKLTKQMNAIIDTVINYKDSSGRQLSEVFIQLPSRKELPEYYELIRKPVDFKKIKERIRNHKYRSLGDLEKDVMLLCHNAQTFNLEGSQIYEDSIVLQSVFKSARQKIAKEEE
Chain of VCB: PROTAC: SMARCA2^BD ternary complex (Homo sapiens, UniProt P40337+P51531) (P40337 54-213): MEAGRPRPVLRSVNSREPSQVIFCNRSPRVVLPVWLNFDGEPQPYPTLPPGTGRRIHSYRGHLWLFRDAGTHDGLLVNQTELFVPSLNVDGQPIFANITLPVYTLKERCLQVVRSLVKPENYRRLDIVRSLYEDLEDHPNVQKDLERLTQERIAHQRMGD
Chain of VCB: PROTAC: SMARCA2^BD ternary complex (Homo sapiens, UniProt P40337+P51531) (Q15369 17-112 partner): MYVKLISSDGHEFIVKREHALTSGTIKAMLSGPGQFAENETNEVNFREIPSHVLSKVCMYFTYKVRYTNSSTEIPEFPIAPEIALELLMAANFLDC
Chain of VCB: PROTAC: SMARCA2^BD ternary complex (Homo sapiens, UniProt P40337+P51531) (Q15370 1-104 partner): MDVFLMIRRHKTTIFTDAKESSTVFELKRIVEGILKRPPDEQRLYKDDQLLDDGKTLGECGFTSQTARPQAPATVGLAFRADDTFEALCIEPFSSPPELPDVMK

≈ marks a conversion by molar mass, not a printed value. Where “and” joins values, the source holds several entries; their conditions need not be identical. Equal entries are not always repeated. Where two headings read alike, the source gives them in different places.

T1 sequence (P51531 1373-1493 isoform P51531-2): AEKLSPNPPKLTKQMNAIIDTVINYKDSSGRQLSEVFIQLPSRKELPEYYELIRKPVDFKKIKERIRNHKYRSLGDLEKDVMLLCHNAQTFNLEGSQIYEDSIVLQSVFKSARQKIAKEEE
T2 sequence (P51531 with tags, fused parts or gaps isoform P51531-2): as the sequence (P51531 with tags, fused parts or gaps isoform P51531-2) above

For the compound `CN1CCN(c2nc(=O)c3c(Cl)cccc3o2)CC1` [R = Cl], in series [1], the Kd was found to be 25 µM.
The same measure, in the same setting: the same measure for `CN1CCN(c2nc(=O)c3c(I)cccc3o2)CC1` [R = I]: 18 µM; for `CN1CCN(c2nc(=O)c3ccccc3o2)CC1` [R = H]: more than 25 µM.
On to `O=c1nc2n(C3CCCC3)c3cc(C4CCNCC4)ccc3n2c2cccc(Br)c12` [compound 4], for which, in series [2], the “Mic. Stab. Human” value is less than 24 % QH, the “Mic. Stab. Human QH” value was less than 24.400%, the “Mic. Stab. Mouse” value was less than 24 % QH and the “Mic. Stab. Mouse QH” value is 25.670%. Moreover, in series [2], the “Mic. Stab. Rat” value is listed as less than 23 % QH and the “Mic. Stab. Rat QH” value is recorded as less than 23.080%. Moreover, the Papp A→B at 1 µM in series [3] (Caco-2, pH 7.4, Caco-2, a to b, read-out: Caco-2 Pab) is 2.55 ×10⁻⁶ cm/s. For the same compound, the Papp B→A at 1 µM in series [3] (Caco-2, pH 7.4, Caco-2, b to a, read-out: Caco-2 Pba) was found to be 32.6 ×10⁻⁶ cm/s. The efflux ratio at 2 h, 1 µM in series [3] (Caco-2, pH 7.4, Caco-2, read-out: Caco-2 Efflux ratio) turned out to be 12.8. Also, the solubility at 24 h in series [4] (pH 4.5, aqueous buffer, pH 4.5, read-out: Solubility pH 4.5) turned out to be 85 µg/mL (≈ 183 µM). Moreover, the solubility at 24 h in series [4] (pH 6.8, aqueous buffer, pH 6.8, read-out: Solubility pH 6.8) is 79 µg/mL (≈ 170 µM). The “cooperativity α (SMARCA2BD)” value in series [5] is given as 1.2. Besides, the midpoint of the response in series [6] (SMARCA2 BD EC50, binary, PROTAC alone, individual replicates), the EC50, lay at 0.0884 µM. In series [6] (TR-FRET SMARCA2BD EC50, TR-FRET competition for SMARCA2BD, without VCB, mean ± SD), a half-maximal effect (EC50) was put at 0.088 µM. In series [7] (TR-FRET Ternary SMARCA2BD EC50 (PROTAC + VCB), TR-FRET competition for SMARCA2BD, + VCB, mean ± SD), the EC50 was determined as 0.074 µM. Moreover, the EC50 in series [7] (Ternary SMARCA2 BD EC50 (PROTAC + VCB), PROTAC + VCB, individual replicates) was 0.0735 µM.
As for `CN1CCN(c2nc(=O)c3c(F)cccc3o2)CC1` [R = F], in series [1], the Kd is more than 25 µM.
As to `Cc1ncsc1-c1ccc([C@@H](COCCN2CCC(c3ccc4c(c3)n(C3CCCC3)c3nc(=O)c5c(Br)cccc5n43)CC2)NC(=O)[C@@H]2C[C@@H](O)CN2C(=O)[C@@H](NC(=O)C2(F)CC2)C(C)(C)C)cc1` [compound 24], in series [2], the “Mic. Stab. Human” value worked out at 59 ± 0.4 % QH; the “Mic. Stab. Human QH” value was 59.130% and 58.510%; the “Mic. Stab. Mouse” value is 40 ± 2 % QH; the “Mic. Stab. Mouse QH” value is 38.210% and 41.130%. Moreover, in series [2], the “Mic. Stab. Rat” value is given as 31 % QH; the “Mic. Stab. Rat QH” value was < 23.080% and 30.780%. Moreover, the “Solubility pH 4.5” value in series [4] (pH 4.5) is on record as <1.000 <1.000 ug/mL. Moreover, the “Solubility pH 6.8” value in series [4] (pH 6.8) is listed as <1.000 <1.000 ug/mL.
Regarding `CN1CCN(c2nc(=O)c3c(Br)cccc3o2)CC1` [R = Br], the Kd in series [1] turned out to be 9 µM.

For orientation: Kd means a measure of binding affinity in units of concentration. As usually defined, the solubility is how much of the substance goes into solution per volume. By EC50 is commonly meant the concentration giving half of the maximal effect.
